The values that follow come from patent US12616716B2, “Wound healing dressings and formulations and methods of use thereof” (Polaroid IP B.V., priority 2023, dated 2026).

≈ marks a conversion by molar mass, not a printed value. Marks after values point to notes of the source that are not given here. Bounds are passed on as bounds.

Data set [1] relates to Escherichia coli EC25922. Put plainly: MIC, broth microdilution in MH broth with resazurin. The data set is classed as cell-based. To be noted: Table 17; modified Gompertz fit; only values marked ^ are reliable estimates, others unreliable.
The test system of data set [2] is Staphylococcus aureus ATCC 29213. Put plainly: MBC, spot plating after 24 h in MH broth. To be noted: Table 18; —: no activity observed.
Description: (§5) To determine MBC compound concentrations breakpoints were estimated from MIC curves. Overnight cultures were set up as described above for all bacterial strains. The following day overnight cultures were adjusted to give a cell density of 5×10^5 cells per mL. Briefly, cultures were adjusted to the McFarland standard (0.08-0.12) and diluted (1:150). Adjusted cultures were inoculated into 96 well plates with 50 μL sterile Muller-Hinton broth (MHB) and 2 concentrations of each compound. […] MBC cultures were quantified by serial dilution in a 96 well plate and spot plating onto Muller-Hinton agar (MHA). MHA plates were incubated at 37° C. for 24 h and counted. Results are presented as CFU per mL.
(§6) To determine MBC compound concentrations, breakpoints were estimated from MIC curves. Overnight cultures were set up as described above for all bacterial strains. The following day overnight cultures were adjusted to give a cell density of 5×10^5 cells per mL. Briefly, cultures were adjusted to the McFarland standard (0.08-0.12) and diluted (1:150). Adjusted cultures were inoculated into 96 well plates with 50 μL sterile Muller-Hinton broth (MHB) and 2 concentrations of each compound. […] MBC cultures were quantified by serial dilution in a 96 well plate and spot plating onto Muller-Hinton agar (MHA). MHA plates were incubated at 37° C. for 24 hours and counted.
(§7) These compounds were tested for their MBC against a panel of ATCC and nosocomial bacteria.
The test system is the same in data set [3]. Description: MIC, broth microdilution in MH broth with resazurin. The format is cell-based. To be noted: for MIC SA29213: Table 17, modified Gompertz fit, only values marked ^ are reliable estimates, others unreliable.
For data set [4], the system named is Staphylococcus aureus MR1. Put plainly: MBC, spot plating after 24 h in MH broth. The following applies: Table 18; —: no activity observed.
Description: as §5, §6, §7
The test system of data set [5] is Enterococcus faecalis EF19433. Description: MIC, broth microdilution in MH broth with resazurin. The data set is classed as cell-based. To be noted: for MIC EF19433: Table 17, modified Gompertz fit, only values marked ^ are reliable estimates, others unreliable.
For data set [6], the system named is Human Keratinocyte (HaCaT) cells. Description: LDH cytotoxicity assay, HaCaT. The format is cell-based. The following applies: Table 16, summarized cell toxicity values. As to the method:
(§1) Primary Human Dermal Fibroblast (HDFs) and Human Keratinocyte (HaCaT) cells were selected for cytotoxicity and proliferation testing. HDFs were cultured in high glucose, no glutamine, no phenol red, Dulbecco's Modified Eagle Medium (DMEM) (GIBCO™). HDF media was further supplemented with 10% heat-inactivated fetal bovine serum (GIBCO™), 1% L-glutamine (GIBCO™) and 1% Penicillin-streptomycin (GIBCO™). HaCaTs cells were cultured in high glucose, no glutamine, no calcium DMEM (GIBCO™) supplemented with 10% heat inactivated foetal bovine serum, 1% L-glutamine, 1% Penicillin-streptomycin 1 mM calcium chloride (Sigma) throughout.
(§2) Mammalian cell populations were maintained in standard culture conditions at 37° C., 5% CO2 and >95% relative humidity. Upon reaching 80% total confluency, cells were removed from the incubator, the culture media aspirated, and the monolayer washed with Dulbecco's […] (DPBS). After washing, 10 mL of 1% trypsin (GIBCO™) was added to the flask and incubated to facilitate the detachment of cells from the culture vessel. Following dissociation, 10 mL of culture media was then added to each flask to neutralize the trypsin enzyme activity. The total 20-mL flask volume was transferred into a universal tube and centrifuged at 400 rcf for 5 minutes. Once complete, the pellet of cells was re-suspended in 10 mL warmed culture media and the number of cells per mL was determined using a hemocytometer counting chamber. Cell suspensions were then adjusted to 5×10^4 cells/mL for HDFs and 1×10^5 cells/mL for HaCaTs. 100 μL of the cell suspension was added to each well of a sterile, cell-culture-treated 96-well microtiter plate. The plates were incubated in standard culture conditions for 16-24 hours to allow cellular adherence to the culture vessel. […] Culture plates were removed from the incubator, the media removed; and monolayers washed with 100 μL of warmed DPBS. The contents of the test item dilution plates were transferred to the culture plates. […]
(§3) The secretion of lactate dehydrogenase (LDH) enzyme was used for quantitatively measuring cell damage and cytotoxicity. As damage to the cell plasma membrane releases LDH into the cell culture media, the extracellular LDH in the media can be quantified by a coupled enzymatic reaction in which LDH catalyzes the conversion of lactate to pyruvate via NAD+ reduction to NADH. […]
(§4) Following incubation with the selected compounds, 50 μL of media from each well was transferred to the corresponding well of a fresh 96 well culture plate. The presence of Lactate dehydrogenase (LDH) was then quantified using the INVITROGEN™ CyQUANT™ LDH Cytotoxicity Assay, fluorescence kit. Total fluorescence was measured by reading the plates on a plate reader at an excitation of 560 nm and an emission of 590 nm. […]

Data set [7] has as its system Escherichia coli EC25922. Put plainly: MBC, spot plating after 24 h in MH broth. To be noted: Table 18; —: no activity observed.
Description: as §5, §6, §7
The subject of data set [8] is Staphylococcus aureus MR1. Description: MIC, broth microdilution in MH broth with resazurin. The data set is classed as cell-based. To be noted: Table 17; modified Gompertz fit; only values marked ^ are reliable estimates, others unreliable.
Data set [9] concerns Klebsiella pneumoniae KL1. The data set is described as above. The data set is classed as cell-based. To be noted: Table 17; modified Gompertz fit; only values marked ^ are reliable estimates, others unreliable.
Data set [10] deals with Enterococcus faecalis EF19433. Description: MBC, spot plating after 24 h in MH broth. The following applies: Table 18; —: no activity observed.
Description: as §5, §6, §7
Data set [11] concerns Enterococcus faecalis EF51299. Description: MIC, broth microdilution in MH broth with resazurin. The data set is classed as cell-based. The following applies: for MIC EF51299: Table 17, modified Gompertz fit, only values marked ^ are reliable estimates, others unreliable.
The subject of data set [12] is Pseudomonas aeruginosa 27853. The description is as above. The data set is classed as cell-based. To be noted: Table 17; modified Gompertz fit; only values marked ^ are reliable estimates, others unreliable.
The test system of data set [13] is Primary Human Dermal Fibroblast (HDFs). Put plainly: LDH cytotoxicity assay, HDF. The format is cell-based. The following applies: Table 16, summarized cell toxicity values. As to the method:
as §1, §2, §3, §4

The subject of data set [14] is Enterococcus faecalis EF51299. Put plainly: MBC, spot plating after 24 h in MH broth. The following applies: Table 18; —: no activity observed.
Description: as §5
(§8) To determine MBC compound concentrations, breakpoints were estimated from MIC curves. Overnight cultures were set up as described above for all bacterial strains. The following day overnight cultures were adjusted to give a cell density of 5×10^5 cells per mL. Briefly, cultures were adjusted to the McFarland standard (0.08-0.12) and diluted (1:150). Adjusted cultures were inoculated into 96 well plates with 50 μL sterile Muller-Hinton broth (MHB) and 2 concentrations of each compound. […] MBC cultures were quantified by serial dilution in a 96 well plate and spot plating onto Muller-Hinton agar (MHA). MHA plates were incubated at 37° C. for 24 hours and counted. […]
The subject of data set [15] is Klebsiella pneumoniae KL1. Description: MBC, spot plating after 24 h in MH broth. To be noted: Table 18; —: no activity observed.
Description: as §5, §8
Data set [16] deals with Staphylococcus aureus NRS384. Description: MIC, broth microdilution in MH broth with resazurin. The data set is classed as cell-based. To be noted: Table 21 (Example 8); Staphylococcus aureus NRS384; read-out: MIC Concentration. For orientation: In broth dilution the organism is exposed to a series of concentrations in liquid medium.
Data set [17] deals with all tested bacteria (Gram-positive and Gram-negative). Put plainly: MIC / antimicrobial activity over the whole panel of tested bacteria.
In a further data set the test system is S. aureus NRS 384. Description: Mouse Staphylococcus aureus-induced wound infection model, bacteria load in wound site. To be noted: 50 μL/wound site.
Data set [18] concerns mammalian cells (HDF and HaCaT). Description: Mammalian cell cytotoxicity (LDH and MTS), both cell populations. The format is cell-based, human. As to the method:
as §1
Mammalian cell populations were maintained in standard culture conditions at 37° C., 5% CO2 and >95% relative humidity. […] Once complete, the pellet of cells was re-suspended in 10 mL warmed culture media and the number of cells per mL was determined using a hemocytometer counting chamber. […]
as §3

With `CCCCCCCCCCCCCCCCCC[N+](C)(C)CCOCCO.[Br-]` [Compound 39637_105543], in the data set on Escherichia coli EC25922 [1], the “MIC EC25922” value is 42.96 µM. Further, the “MBC SA29213” value in data set [2] turned out to be 1.57 µM. The “MIC SA29213” value in data set [3] was 3.16 µM. The “MBC MR1” value in data set [4] is 6.25 µM. Moreover, in data set [5], the “MIC EF19433” value was 3.20^ μM. The “Mammalian Cell Cytotoxicity, HaCaT” value in data set [6] is 6.3 µM. The “MBC EC25922” value with Escherichia coli EC25922 [7] was 25 µM. Also, the “MIC MR1” value in data set [8] is 10.58^ μM. The “MIC KL1” value in data set [9] was “+infinity”. In data set [10], the “MBC EF19433” value amounted to 1.57 µM. The “MIC EF51299” value in [11] is listed as 62.65^ μM. Besides, in data set [12], the “MIC PA27853” value is 53.54 µM. Also, the “Mammalian Cell Cytotoxicity, HDF” value in data set [13] came to 6.3 µM.

On to `CCCCCCCCCCCCCCCCCC[N+](C)(C)CCOCCO.[Br-]` [Compound 39637_109466], for which the “MIC EC25922” value in the data set on Escherichia coli EC25922 [1] is 59.94 µM. Besides, in data set [2], the “MBC SA29213” value worked out at 1.57 µM. Moreover, the “MIC SA29213” value in [3] is 3.05 µM. Moreover, in [4], the “MBC MR1” value came to 6.25 µM. The “MIC EF19433” value in data set [5] is reported as 2.59^ μM. The “Mammalian Cell Cytotoxicity, HaCaT” value in [6] was 6.3 µM. The “MBC EC25922” value against Escherichia coli EC25922 [7] is 25 µM. Also, the “MBC EF51299” value in data set [14] stood at 1.57 µM. Moreover, the “MIC MR1” value in data set [8] is 10.78^ μM. In addition, in [9], the “MIC KL1” value was 2.06 µM. In data set [15], the “MBC KL1” value worked out at 50 µM. Moreover, the “MBC EF19433” value in [10] turned out to be 1.57 µM. The “MIC EF51299” value in data set [11] is reported as 16.81^ μM. The “MIC PA27853” value in data set [12] is given as 62.14^ μM. In data set [13], the “Mammalian Cell Cytotoxicity, HDF” value turned out to be 6.3 µM.

Consider `CCCCCC[N+](C)(C)CCOCCO.[Br-]` [Compound 40598_109448], for which the “MIC EC25922” value with Escherichia coli EC25922 [1] is 0.83 µM. Also, the “MIC SA29213” value in data set [3] is 1.93 µM. Also, in data set [5], the “MIC EF19433” value was “Unstable”. Further, in [6], the “Mammalian Cell Cytotoxicity, HaCaT” value is more than 100 µM. The “MIC KL1” value in [9] is 48.98 µM. Also, the “MIC PA27853” value in data set [12] was 0.06 µM. In data set [13], the “Mammalian Cell Cytotoxicity, HDF” value is more than 100 µM.

Regarding `CC(=O)O[C@H]1C[C@@]2(C)[C@@H](C[C@@H](O)[C@H]3[C@@]4(C)CC[C@@H](O)[C@@H](C)[C@@H]4CC[C@@]32C)/C1=C(\CCC=C(C)C)C(=O)O` [fusidic acid], the MIC was determined as 0.04 µM (≈ 0.0207 µg/mL) in data set [3] (ATCC29213, Table 21 (Example 8), Staphylococcus aureus 29213, read-out: MIC Concentration); 5 µM (≈ 2.58 µg/mL) in [5] (Table 21 (Example 8), Enterococcus faecalis EF19433, read-out: MIC Concentration); 0.04 µM (≈ 0.0207 µg/mL) in data set [16]; 5 µM (≈ 2.58 µg/mL) in data set [11] (Table 21 (Example 8), Enterococcus faecalis EF51299, read-out: MIC Concentration).

In the case of `CCCCCCCCCCCC[N+](C)(C)CCOCCO.[Br-]` [Compound 40597_109444], the “MIC EF19433” value in [5] is recorded as 1.63^ μM. Further, the “Mammalian Cell Cytotoxicity, HaCaT” value in [6] came to 100 µM. Besides, the “MIC MR1” value in [8] is 0.94 µM. Also, the “MIC KL1” value in data set [9] was 0.01 µM. Moreover, in data set [11], the “MIC EF51299” value is 27.19^ μM. The “MIC PA27853” value in data set [12] is 2.84 µM. In addition, the “Mammalian Cell Cytotoxicity, HDF” value in data set [13] is 100 µM.

Consider `CCCCCCCCCCCCCCCCCC[N+](C)(C)CCOCCO.[Br-]` [Compound 39637], for which the “antimicrobial activity towards the gram +ve species Enterococcus faecalis and Staphylococcus aureus (in words)” value in data set [17] was “strong antimicrobial activity”. Also, the “Ig(CFU/wound site) 24 h p.i.” value in the data set with S. aureus NRS 384 (Study I, 100 μM, once a day) is given as 8.49 ± 0.30 Ig(CFU/wound site); with S. aureus NRS 384 (Study II, 300 μM, once a day) it was 8.90 ± 0.10 Ig(CFU/wound site); with S. aureus NRS 384 (Study II, 1000 μM, once a day), 5.81 ± 1.79 Ig(CFU/wound site). For the same molecule, the “ΔIg(CFU/wound site) vs 12 h infection control” value is −0.23 ± 0.06 Ig(CFU/wound site) in the data set with S. aureus NRS 384 (Study I, 100 μM, once a day); −0.45 ± 0.40 Ig(CFU/wound site) in the data set on S. aureus NRS 384 (Study II, 300 μM, once a day); −3.15 ± 0.94 Ig(CFU/wound site) with S. aureus NRS 384 (Study II, 1000 μM, once a day). For the same molecule, the “ΔIg(CFU/wound site) vs 24 h infection control” value with S. aureus NRS 384 (Study I, 100 μM, once a day) is given as −0.29 ± 0.30 Ig(CFU/wound site); in the data set with S. aureus NRS 384 (Study II, 300 μM, once a day), 0.04 ± 0.10 Ig(CFU/wound site); in the data set on S. aureus NRS 384 (Study II, 1000 μM, once a day), −3.06+1.79** Ig(CFU/wound site). In addition, the “Ig(CFU/wound site) 12 h p.i.” value with S. aureus NRS 384 (Study I, 100 μM, once a day from 5 min p.i., inoculum 4.20E+06 CFU/wound site) is 8.35 ± 0.06 Ig(CFU/wound site); with S. aureus NRS 384 (Study II, 300 μM, once a day, inoculum 2.50E+06 CFU/wound site), 8.14 ± 0.40 Ig(CFU/wound site); in the data set with S. aureus NRS 384 (Study II, 1000 μM, once a day), 5.44 ± 0.94 Ig(CFU/wound site). In addition, the “concentration with almost total/complete absence of viable cells” value in data set [18] (HDF and HaCaT) amounted to 6.3 µM. The “concentration at which LDH secretion began to rapidly exceed control levels” value in data set [18] (HDF and HaCaT populations) stood at 3.12 µM.
